Test results as given in ChEMBL document CHEMBL1131864, “Effects of sesquiterpenes and triterpenes from the rhizome of Alisma orientale on nitric oxide production in lipopolysaccharide-activated macrophages: absolute stereostructures of alismaketones-B 23-acetate and -C 23-acetate” (Bioorg Med Chem Lett, 1999).

How the values were obtained:
Type in all cases: functional
Mus musculus [1] = organism: Mus musculus; test: Inhibition of nitric oxide production in LPS-activated mouse macrophages at a concentration of 100 uM
Mus musculus [2] = organism: Mus musculus; test: Inhibition of nitric oxide production in LPS-activated mouse macrophages at a concentration of 10 uM
Mus musculus [3] = organism: Mus musculus; test: Inhibition of nitric oxide production in LPS-activated mouse macrophages at a concentration of 30 uM
Mus musculus [4] = organism: Mus musculus; test: Inhibition of nitric oxide production in LPS-activated mouse macrophages at a concentration of 3 uM
Mus musculus [5] = organism: Mus musculus; test: Inhibition of nitric oxide production in LPS-activated mouse macrophages at a concentration of 1 uM
Mus musculus [6] = organism: Mus musculus; test: Concentration required for inhibition of nitric oxide production in LPS-activated mouse macrophages

IC50 (Mus musculus [6]) [µM] | SMILES | inhibition at 100 µM (Mus musculus [1]) [%] | inhibition at 10 µM (Mus musculus [2]) [%] | inhibition at 30 µM (Mus musculus [3]) [%] | inhibition at 3 µM (Mus musculus [4]) [%] | inhibition at 1 µM (Mus musculus [5]) [%]
> 10 | CC(=O)O[C@@H](C[C@@H](C)C1=C2[C@H](O)[C@H](O)C3[C@@]4(C)CCC(=O)C(C)(C)C4CC[C@]3(C)[C@@]2(C)CC1)[C@H]1OC1(C)C (stereo not given in full) | 116 | 32.3 | 117 | 4 | 5.9
36 | CC(=O)O[C@H]1C[C@@H](C)C2=C3C[C@H](O)C4[C@@]5(C)CCC(=O)C(C)(C)C5CC[C@]4(C)[C@@]3(C)C[C@@H]2O[C@H]1C(C)(C)O (stereo not given in full) | 90.8 | 13.5 | 42.9 | 7.5 | -4.5
12 | C[C@@H]1CC([C@H]2OC2(C)C)OC2C[C@@]3(C)C(=C21)CCC1[C@@]2(C)CCC(=O)C(C)(C)C2CC[C@@]13C (stereo not given in full) | 100 | 31.2 | 84.2 | 21.7 | -5.1
17 | C[C@H](CC(=O)CC(C)(C)O)C1=C2CCC3[C@@]4(C)CCC(=O)C(C)(C)C4CC[C@]3(C)[C@@]2(C)CC1=O (stereo not given in full) | 97.2 | 26.7 | 71.3 | 17.2 | -5.1
42 | CC(=O)O[C@@H](C[C@@H](C)C1=C2C[C@H](O)C3[C@@]4(C)CCC(=O)C(C)(C)C4CC[C@]3(C)[C@@]2(C)CC1=O)[C@H]1OC1(C)C (stereo not given in full) | 67.3 | 21.1 | 43.8 | 13.3 | 2.9
> 10 | CC(=O)O[C@@H](C[C@@H](C)[C@]12O[C@H]1C[C@@]1(C)C2=CC(=O)C2[C@@]3(C)CCC(=O)C(C)(C)C3CC[C@@]21C)[C@H]1OC1(C)C (stereo not given in full) | 114 | 31.1 | 83.6 | 11.9 | 9.9
> 10 | CC(=O)O[C@@H](C[C@@H](C)C1=C2C[C@H](O)C3[C@@]4(C)CCC(=O)C(C)(C)C4CC[C@]3(C)[C@@]2(C)CC1)[C@H]1OC1(C)C (stereo not given in full) | 105 | 29.7 | 106 | 13.4 | 0
15 | C[C@@H]1CC([C@@H](O)C(C)(C)O)OC2C[C@@]3(C)C(=C21)C[C@H](O)C1[C@@]2(C)CCC(=O)C(C)(C)C2CC[C@@]13C (stereo not given in full) | 99.5 | 40.3 | 69.6 | 14.8 | 7.5
> 10 | C[C@H](C[C@H](O)[C@H]1OC1(C)C)C1=C2C[C@H](O)C3[C@@]4(C)CCC(=O)C(C)(C)C4CC[C@]3(C)[C@@]2(C)CC1 (stereo not given in full) | 108 | 36.3 | 109 | 21.3 | 13.2

The next lines start with the compound.

SMILES | IC50 (Mus musculus [6]) [µM] | inhibition at 100 µM (Mus musculus [1]) [%] | inhibition at 10 µM (Mus musculus [2]) [%] | inhibition at 30 µM (Mus musculus [3]) [%] | inhibition at 3 µM (Mus musculus [4]) [%] | inhibition at 1 µM (Mus musculus [5]) [%]
C[C@H](C[C@H](O)[C@H](O)C(C)(C)O)C1=C2C[C@H](O)C3[C@@]4(C)CCC(=O)C(C)(C)C4CC[C@]3(C)[C@@]2(C)CC1 (stereo not given in full) | > 10 | 111 | 30 | 113 | 21.4 | 5.8
COC(=O)C(C)(C)C1CC[C@@]2(C)C3[C@H](CC4=C([C@H](C)C[C@H](OC(C)=O)[C@H]5OC5(C)C)CC[C@@]42C)OC(=O)C[C@@]13C (stereo not given in full) | 10 | 110 | 49.2 | 84.2 | 17.2 | -2.6
C[C@H](C[C@H](O)[C@@H](O)C(C)(C)O)C1=C2C[C@H](O)C3[C@@]4(C)CCC(=O)C(C)(C)C4CC[C@]3(C)[C@@]2(C)CC1 (stereo not given in full) | > 10 | 114 | 26.2 | 84.2 | 21.4 | 0.2
C=C(C)[C@H](O)[C@@H](O)C[C@@H](C)C1=C2C[C@H](O)C3[C@@]4(C)CCC(=O)C(C)(C)C4CC[C@]3(C)[C@@]2(C)CC1 (stereo not given in full) | > 10 | 106 | 29.7 | 104 | 21.4 | 8.8
CC(C)C1=CC2C(CC[C@]2(C)O)/C(=C/S(=O)(=O)O)CC1 (stereo not given in full) | > 100 | 27.1 | 11 | 21.5 | 14.3 | 8.4
C=C1CCC(C(C)C)=CC2C1CC[C@]2(C)O (stereo not given in full) | 23 | 97.4 | 27 | 57.5 | 17.6 | 3.4
CC(C)C1=CC2C(CC[C@]2(C)O)[C@@](O)(CS(=O)(=O)O)CC1 (stereo not given in full) | > 100 | 21.3 | 4.9 | 16.3 | -2.2 | 2.8
CC(C)C1=CC2C(CC[C@]2(C)O)[C@](C)(O)CC1 (stereo not given in full) | > 100 | 33.1 | 0.4 | 12 | -1.8 | -2.5
C=C1CC[C@@]2(C(C)C)O[C@H]2C2C1CC[C@]2(C)O (stereo not given in full) | 53 | 74.9 | 14.1 | 29.2 | 5 | 0.9
CC(=O)O[C@@H](C[C@@H](C)C1=C2C[C@H](O)C3[C@@]4(C)CCC(=O)C(C)(C)C4CC[C@]3(C)[C@@]2(C)CC1)[C@H](O)C(C)(C)O (stereo not given in full) | 16 | 104 | 32.1 | 81 | 10 | 9.2
CC(C)[C@]12CC[C@](C)(O1)C1CC[C@](C)(S(=O)(=O)O)C1[C@@H]2O (stereo not given in full) | > 100 | 24.7 | 4.3 | 12.6 | -2.1 | 3.3
CC(=O)O[C@@H](C[C@@H](C)C1=C2C=CC3[C@@]4(C)CCC(=O)C(C)(C)C4CC[C@]3(C)[C@@]2(C)CC1=O)[C@H]1OC1(C)C (stereo not given in full) | 8.4 | 104 | 54.8 | 86.5 | 27.9 | 17.8
CC(=O)O[C@@H](C[C@@H](C)C(=O)CC[C@@]1(C)C(=O)C=CC2[C@@]3(C)CCC(=O)C(C)(C)C3CC[C@@]21C)[C@H]1OC1(C)C (stereo not given in full) | 23 | 114 | 22.7 | 61 | 10.2 | 2.9
CC(C)C1=CC2C(CC[C@]2(C)O)[C@@](O)(CO)CC1 (stereo not given in full) | 68 | 64.1 | 4.8 | 21.2 | -3.1 | -4.3
CC(=O)O[C@@H](C[C@@H](C)C1=C2[C@H](O)[C@H](O)C3[C@@]4(C)CCC(=O)C(C)(C)C4CC[C@]3(C)[C@@]2(C)CC1=O)[C@H]1OC1(C)C (stereo not given in full) | 9.3 | 104 | 50.8 | 86.3 | 29.7 | 19
CC(=O)O[C@@H](C[C@@H](C)C1=C2C[C@@H]3OC(=O)C[C@@]4(C)C(C(C)(C)C(=O)O)CC[C@@](C)(C34)[C@@]2(C)CC1)[C@H]1OC1(C)C (stereo not given in full) | 16 | 90.7 | 38.2 | 65.6 | 23.2 | 10.3
CC(=O)O[C@H]([C@@H](O)C[C@@H](C)C1=C2C[C@H](O)C3[C@@]4(C)CCC(=O)C(C)(C)C4CC[C@]3(C)[C@@]2(C)CC1)C(C)(C)O (stereo not given in full) | > 10 | 112 | 13.4 | 71 | 6.4 | -2.9
O=C(/C=C/c1ccc(O)c(O)c1)OCCc1ccccc1 [CAFFEIC ACID PHENETHYL ESTER] | 4 | 104 | 97.5 | 104 | 25.5 | -1.9
C=C1/C=C/[C@H](C(C)C)CC/C(C)=C/CC1 [GERMACRENE D] | 58 | 68.5 | 16.7 | 29 | 1.6 | 7.5
N=C(N)NCCSSCCNC(=N)N [GUANIDINOETHYLDISULFIDE] | 1.4 | 105 | 102 | 105 | 76.3 | 39.1
CNC(=N)NCCC[C@H](N)C(=O)O [TILARGININE] | 28 | 79.2 | 17.7 | 52.3 | 2 | 4.4
